One compound from US20150164916A1, “ROFLUMILAST COMPOSITIONS FOR THE TREATMENT OF COPD” (Forest Laboratories Holdings Ltd., priority 2012, published 2015) can be followed below.

Common to all, as to type: cell-based, human
The subject of one assay is CCL-5 release. Description: LPS-induced CCL-5 release in isolated peripheral blood neutrophils (LUMINEX). Conditions: LPS (1 μg/ml), 6 h. On the procedure: (§1) Neutrophils and monocytes were isolated from peripheral venous blood by standard laboratory procedures. In brief, peripheral venous blood was mixed with dextran 500 at 3% (in 0.9% saline) in a proportion of 2:1. This mixture was incubated at room temperature for 30 min until erythrocytes were sedimented. The upper phase was carefully collected and added on Ficoll-Paque Histopaque 1077 (Amershan Pharmacia Biotech, Barcelona, Spain) density gradient in a proportion of 3:1. The two phases generated were centrifuged at 150 g, 4° C. for 30 min. Thus, the interface was collected to isolate monocytes, and the pellet obtained (which is consisted a mixture of neutrophils and low proportion of residual erythrocytes and traces of eosinophils and basophils) was resuspended in an erythrocyte lysis buffer (Biolegend, UK) for 5 min in ice. Cell suspension was washed two times with phosphate buffer (PBS).
(§2) Peripheral neutrophil cell suspension was adjusted to 500×10^3 cells per well in 24-well plates and incubated in RPMI culture medium for 1 h into the incubator at 37° C., 5% CO2. […] Both the stimulus and drug were remained together for 6 h. Supernatants were collected and centrifuged at 120 g for 5 min, and the free-cell supernatant was used to measure IL-8, MMP-9, IL-1β, GM-CSF and CCL-5.
(§3) IL-8 was determined by using commercially available enzyme-linked immunosorbent assay kit for IL-8 (R&D Systems, UK) according to the manufacturer's protocol. MMP-9, IL-1β, GM-CSF and CCL-5 were measured by LUMINEX technology according to the manufacturer's protocol.
(§4) Data were presented as mean±SEM. IC50 values were calculated for each drug and their combinations. Statistical analysis of results was carried out by analysis of variance (ANOVA) followed by Bonferroni test, by Student's t test, or by non-parametric tests as appropriate (GraphPad Software Inc, San Diego, Calif., USA). Significance was accepted when P<0.05. For clinical correlations of lung function and gene expression from neutrophils the non-parametric Spearman correlation analysis was carried out.

In the next assay the test system is HDAC2. Description: Real time RT-PCR of HDAC2 expression in CSE-stimulated neutrophils from COPD patients. Conditions: RNO 1 nM and 1 μM, DEX 1 μM, RNO 1 nM plus DEX 1 μM, NAC 1 mM, CSE 5%. On the procedure:
Neutrophils and monocytes were isolated from peripheral venous blood by standard laboratory procedures. In brief, peripheral venous blood was mixed with dextran 500 at 3% (in 0.9% saline) in a proportion of 2:1. This mixture was incubated at room temperature for 30 min until erythrocytes were sedimented. The upper phase was carefully collected and added on Ficoll-Paque Histopaque 1077 (Amershan Pharmacia Biotech, Barcelona, Spain) density gradient in a proportion of 3:1. The two phases generated were centrifuged at 150 g, 4° C. for 30 min. […]
CSE was prepared as previously outlined (Milara et al.; Ortiz et al.). […] The quality of the prepared CSE solution was assessed based on the absorbance at 320 nm, which is the specific absorption wavelength of peroxynitrite. Stock solutions with an absorbance value of 3.0±0.1 were used. […]
Total RNA was obtained from isolated neutrophils under basal conditions or after different drug and stimulation periods defined above by using TriPure® Isolation Reagent (Roche, Indianapolis, USA). […] Relative quantification of these transcripts was determined with the 2^−ΔΔCt method using glyceraldehyde phosphate dehydrogenase (GAPDH) as endogenous control (Applied Biosystems; 4352339E) and normalized to control group as previously described (Milara et al., 2009).
Then, mRNA was isolated and quantified for different genes.
Background: In qPCR the cycle at which signal appears reflects the starting amount.

Another assay concerns intracellular ROS. The assay can be described thus: Intracellular reactive oxygen species (ROS) by flow cytometry in whole blood neutrophils from COPD patients. As to conditions: fMLP 1 μM or CSE 5%, 1 h, NAC 1 mM. On the procedure: Intracellular reactive oxygen species (ROS) were measured by a flow cytometry assay using 2′,7′-dichlorodihydrofluorescein diacetate (H2DCF-DA, Molecular Probes, UK) as previously outlined (Milara et al., 2010). H2DCF-DA was added for 15 min before stimulus to a final concentration of 5 μM to measure intracellular ROS. The bacterial peptide fMLP was added as stimulus at 1 μM […] to generate intracellular ROS (Elbim et al., 2001). In other experiments, to reproduce in vivo conditions, CSE 5% was added to generate intracellular ROS. Intracellular ROS was measured using fresh whole blood from COPD patients. Blood neutrophils were selected using CD16-Alexa Fluor 647 antibody (molecular probes, UK) as neutrophil marker, and CD14-PerCEP-Cy5.5 mouse antihuman (molecular probes, UK) as monocyte marker in an Epics Profile II flow cytometer. A total of 1 ml of whole blood was pre-incubated at 37° C. for 30 min with RNO ([…] (1 mM) and H2DCF-DA followed by fMLP 1 μM or CSE 5% stimulation for another 1 h. Then erythrocytes were lysed using a commercial erythrocyte lysis buffer (Biolegend, UK) for 10 min. Fluorescence intensity was measured in the polymorphonuclear region of whole blood in an Epics Profile II flow cytometer. Results were expressed as DCF fluorescence in relative fluorescence units (RFU).
To this end, whole blood was stimulated with the bacterial peptide fMLP 1 μM or with CSE 5% in presence or absence of RNO or NAC for 1 h.

The next assay concerns IL-8 release. The assay can be described thus: LPS- or CSE-induced IL-8 release in isolated peripheral blood neutrophils (ELISA). As to conditions: 6 h. On the procedure:
as §1
(§5) CSE was prepared as previously outlined (Milara et al.; Ortiz et al.). Briefly, the smoke of a research cigarette (2R4F; Tobacco Health Research, University of Kentucky, KY, USA) was generated by a respiratory pump (Apparatus Rodent Respirator 680; Harvard, Germany) through a puffing mechanism related to the human smoking pattern (3 puff/min; 1 puff 35 ml; each puff of 2 s duration with 0.5 cm above the filter) and was bubbled into a flask containing 25 ml of pre-warmed (37° C.) RPMI 1640 culture medium supplemented as describe above. The CSE solution was sterilized by filtration through a 0.22-μm cellulose acetate sterilizing system (Corning, N.Y.). The resultant CSE solution was considered to be 100% CSE and was used for experiments within 30 min of preparation. CSE 10% corresponds approximately to the exposure associated with smoking two packs per day (Su et al., 1998). The quality of the prepared CSE solution was assessed based on the absorbance at 320 nm, which is the specific absorption wavelength of peroxynitrite. Stock solutions with an absorbance value of 3.0±0.1 were used. To test for cytotoxicity from CSE, isolated neutrophils and monocytes were treated with CSE concentrations of up to 5% for 24.
as §2, §3, §4
On the technique in general: An ELISA detects its analyte on a solid surface through an enzyme-linked reagent.

The next assay concerns MMP-9 release. Description: LPS- or CSE-induced MMP-9 release in isolated peripheral blood neutrophils (LUMINEX). As to conditions: 6 h. Here is the method: as §1, §5, §2, §3, §4
[1] abbreviates: CSE 5%, neutrophils from COPD patients.
The mark [2] stands for this setting: CSE 5%, neutrophils from HEALTHY.
[3] abbreviates: LPS (1 μg/ml), neutrophils from COPD patients.
[4] abbreviates: LPS (1 μg/ml), neutrophils from HEALTHY.

In the case of `O=C(Nc1c(Cl)c[n+]([O-])cc1Cl)c1ccc(OC(F)F)c(OCC2CC2)c1` [RNO, roflumilast N-oxide], the entries for the “-log IC50, inhibition of CCL-5 release” value with CCL-5 release (neutrophils from COPD patients) and with CCL-5 release (neutrophils from HEALTHY) were 8.77 ± 0.35 and 8.62 ± 0.14, respectively. In addition, the figures for the “Maximal % Inhibition of CCL-5 release” value in the assay with CCL-5 release (neutrophils from COPD patients) and in the assay on CCL-5 release (neutrophils from HEALTHY) were 83.01 ± 6.74% and 79.34 ± 3.63%, respectively. In the assay with HDAC2, the “effect on CSE-induced HDAC2 downregulation” value is reported as “inhibited”. Further, the “effect on ROS generation in neutrophils” value is “dose-dependently inhibited” in the assay on intracellular ROS and “inhibits” with intracellular ROS (listed as Roflumilast N-oxide). For the same compound, the “-log IC50, inhibition of IL-8 release” value with IL-8 release (setting [1]) is 7.92 ± 0.1; with IL-8 release (setting [2]) it was 7.95 ± 0.12; in the assay with IL-8 release (setting [3]), 7.44 ± 0.24; in the assay on IL-8 release (setting [4]) it was 7.46 ± 0.26. The “Maximal % Inhibition of IL-8 release” value in the assay with IL-8 release (setting [1]) was determined as 88.9 ± 5.62%; with IL-8 release (setting [2]) it was 90.4 ± 5.4%; with IL-8 release (setting [3]), 48.70 ± 5.18%; in the assay with IL-8 release (setting [4]), 40.50 ± 4.55%. Moreover, the “-log IC50, inhibition of MMP-9 release” value with MMP-9 release (setting [1]) was determined as 8.76 ± 0.11; in the assay on MMP-9 release (setting [2]) it was 8.87 ± 5.6; with MMP-9 release (setting [3]), 7.64 ± 0.23; in the assay with MMP-9 release (setting [4]), 7.66 ± 0.22. The “Maximal % Inhibition of MMP-9 release” value with MMP-9 release (setting [1]) was determined as 62.58 ± 2.28%; with MMP-9 release (setting [2]), 64.8 ± 5.64%; in the assay with MMP-9 release (setting [3]), 94.61 ± 11.82%; in the assay on MMP-9 release (setting [4]), 98.9 ± 12.6%.
